The subject of series [1] is reconstructed human epidermis. The series is described as follows: in vitro skin corrosion / skin irritation, OECD TG 431 and 439 (human skin model, reconstructed human epidermis). In kind it is cell-based. To be noted: non-animal OECD methods. From the text:
These are amongst the first and most established non-animal methods adopted by the Organisation for Economic Co-operation and Development. Clinical skin tolerability studies for the final formulation containing Thiamidol provide confirmatory evidence but also information about consumer sensory experiences.
(§1) Thiamidol used for testing was sourced from Alzchem Group AG (Trostberg, Germany) with a purity of 99% w/w. For standard toxicological endpoints of skin irritation, phototoxicity and genotoxicity, in vitro studies were performed following equivalent methods to those described in the corresponding OECD Testing Guidelines: OECD Test Guideline No. 431 (In Vitro Skin Corrosion: Human Skin Model Test); OECD Test Guideline No. 439 (In Vitro Skin Irritation: Reconstructed Human Epidermis Test Method); OECD Test Guideline No. 432 (In Vitro 3T3 NRU Phototoxicity Test); OECD Test Guideline No. 471 (Bacterial Reverse Mutation Assay); OECD Test Guideline No. 487 (in vitro Mammalian Cell Micronucleus Test); and OECD Test Guideline No. 476 (in vitro Mammalian Cell Gene Mutation Test).

Series [2] is described as follows: 3T3 Neutral Red Uptake (NRU) cytotoxicity / phototoxicity, OECD TG 432. In kind it is cell-based. To be noted: mouse, 3T3 cells; absence of UV light; Beiersdorf internal report; read-out: NR50 (IC50 for neural uptake), cytotoxicity in 3T3 NRU.
Description: (§2) From established in vitro guideline studies, potential genotoxicity and toxic effects at a cellular level can be elucidated. This can be complemented with a weight-of-evidence of any observed indicators of cytotoxicity in multiple assays. For instance, the 3T3 Neutral Red Uptake (NRU) assay, which was initially developed for phototoxicity, can provide an indication for local toxicity in the absence of UV light.
as §1

Series [3] relates to 3T3. The series is described as above. In kind it is cell-based. To be noted: presence of UV light.
Description: as §2, §1

For series [4], the target named is T1, norepinephrine transport (NET) (Homo sapiens, UniProt P23975).
T1 construct: purchased Eurofins Discovery (San Diego, CA, USA), SAFETYscan E/IC50 SELECT service
T1 sequence (P23975 whole entry): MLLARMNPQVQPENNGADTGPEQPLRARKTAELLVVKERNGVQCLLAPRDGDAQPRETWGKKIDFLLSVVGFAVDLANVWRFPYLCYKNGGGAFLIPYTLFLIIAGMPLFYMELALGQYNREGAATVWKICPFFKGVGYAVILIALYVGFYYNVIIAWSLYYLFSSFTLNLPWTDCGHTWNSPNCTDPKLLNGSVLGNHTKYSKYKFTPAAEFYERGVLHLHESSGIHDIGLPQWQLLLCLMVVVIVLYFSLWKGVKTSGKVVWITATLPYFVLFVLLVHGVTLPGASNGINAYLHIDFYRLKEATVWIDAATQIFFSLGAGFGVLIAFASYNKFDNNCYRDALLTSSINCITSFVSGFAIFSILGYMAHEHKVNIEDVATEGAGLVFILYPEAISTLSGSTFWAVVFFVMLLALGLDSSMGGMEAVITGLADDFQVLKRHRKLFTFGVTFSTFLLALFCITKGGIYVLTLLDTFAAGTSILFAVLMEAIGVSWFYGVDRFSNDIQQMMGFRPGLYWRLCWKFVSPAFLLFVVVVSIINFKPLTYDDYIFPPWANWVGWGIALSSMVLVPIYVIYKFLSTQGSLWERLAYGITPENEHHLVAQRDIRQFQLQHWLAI
In words: SAFETYscan NET assay. In kind it is biochemical. To be noted: 0.1 µM to 10 µM tested. As to the method: (§3) Pharmacological profiling was performed with the SAFETYscan^TM E/IC50 SELECT service provided by Eurofins Discovery (San Diego, CA, USA), based on the findings of in vitro assays used in pharmaceutical companies. Increasing concentrations of Thiamidol (0.1 µM to 10 µM) were tested against various ion channels, and a total of seventy-eight assays performed utilizing various output reads, including GPCR cAMP modulation, calcium mobilization, nuclear hormone receptor interactions, KINOMEscan binding, ion channel interactions, transporter interactions and enzymatic reactions. Methods are available online via Eurofins Discovery in the format of a sample report.

A further series deals with T2, COX1 (Homo sapiens, UniProt P23219).
T2 construct: purchased Eurofins Discovery (San Diego, CA, USA), SAFETYscan E/IC50 SELECT service
T2 sequence (P23219 24-599): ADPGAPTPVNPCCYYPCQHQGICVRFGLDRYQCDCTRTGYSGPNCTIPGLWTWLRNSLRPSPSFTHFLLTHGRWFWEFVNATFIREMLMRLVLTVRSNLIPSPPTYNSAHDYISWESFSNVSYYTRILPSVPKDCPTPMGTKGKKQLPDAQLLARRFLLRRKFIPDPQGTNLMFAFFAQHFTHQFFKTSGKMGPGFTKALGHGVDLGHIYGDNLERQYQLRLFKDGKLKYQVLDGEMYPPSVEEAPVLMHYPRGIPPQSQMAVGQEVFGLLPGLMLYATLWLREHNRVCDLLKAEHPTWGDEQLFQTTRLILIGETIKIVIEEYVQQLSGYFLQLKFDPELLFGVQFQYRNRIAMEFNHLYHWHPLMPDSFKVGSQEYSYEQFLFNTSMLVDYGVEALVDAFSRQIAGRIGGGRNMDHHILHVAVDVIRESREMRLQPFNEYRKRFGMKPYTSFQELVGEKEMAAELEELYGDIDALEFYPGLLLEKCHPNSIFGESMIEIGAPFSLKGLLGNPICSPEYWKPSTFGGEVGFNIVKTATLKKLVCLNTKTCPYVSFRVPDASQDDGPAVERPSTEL
In words: SAFETYscan COX1 enzymatic inhibition. In kind it is biochemical. To be noted: 0.1 µM to 10 µM tested. As to the method:
as §3

A further series has as its target T3, COX2 (Homo sapiens, UniProt P35354).
T3 construct: purchased Eurofins Discovery (San Diego, CA, USA), SAFETYscan E/IC50 SELECT service
T3 sequence (P35354 18-604): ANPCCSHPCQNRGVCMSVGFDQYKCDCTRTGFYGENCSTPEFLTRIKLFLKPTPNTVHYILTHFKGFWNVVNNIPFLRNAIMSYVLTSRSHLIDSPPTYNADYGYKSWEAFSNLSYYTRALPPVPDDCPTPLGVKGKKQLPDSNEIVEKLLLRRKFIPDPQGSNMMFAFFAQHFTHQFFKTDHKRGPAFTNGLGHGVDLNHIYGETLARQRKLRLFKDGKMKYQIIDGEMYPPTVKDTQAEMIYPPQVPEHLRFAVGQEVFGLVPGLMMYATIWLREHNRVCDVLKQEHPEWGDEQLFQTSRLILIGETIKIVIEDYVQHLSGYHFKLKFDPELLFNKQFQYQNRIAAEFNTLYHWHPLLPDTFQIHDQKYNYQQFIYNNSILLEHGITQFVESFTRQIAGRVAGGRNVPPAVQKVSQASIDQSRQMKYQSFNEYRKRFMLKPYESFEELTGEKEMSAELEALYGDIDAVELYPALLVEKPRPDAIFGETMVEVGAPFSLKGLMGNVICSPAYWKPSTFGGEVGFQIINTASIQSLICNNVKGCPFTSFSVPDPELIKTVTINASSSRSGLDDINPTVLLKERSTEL
The series is described as follows: SAFETYscan COX2 enzymatic inhibition. In kind it is biochemical. To be noted: 0.1 µM to 10 µM tested. As to the method:
as §3

Series [5] deals with T4, monoamine oxidase A (MOAO) (Homo sapiens, UniProt P21397).
T4 construct: purchased Eurofins Discovery (San Diego, CA, USA), SAFETYscan E/IC50 SELECT service
T4 sequence (P21397 1-527): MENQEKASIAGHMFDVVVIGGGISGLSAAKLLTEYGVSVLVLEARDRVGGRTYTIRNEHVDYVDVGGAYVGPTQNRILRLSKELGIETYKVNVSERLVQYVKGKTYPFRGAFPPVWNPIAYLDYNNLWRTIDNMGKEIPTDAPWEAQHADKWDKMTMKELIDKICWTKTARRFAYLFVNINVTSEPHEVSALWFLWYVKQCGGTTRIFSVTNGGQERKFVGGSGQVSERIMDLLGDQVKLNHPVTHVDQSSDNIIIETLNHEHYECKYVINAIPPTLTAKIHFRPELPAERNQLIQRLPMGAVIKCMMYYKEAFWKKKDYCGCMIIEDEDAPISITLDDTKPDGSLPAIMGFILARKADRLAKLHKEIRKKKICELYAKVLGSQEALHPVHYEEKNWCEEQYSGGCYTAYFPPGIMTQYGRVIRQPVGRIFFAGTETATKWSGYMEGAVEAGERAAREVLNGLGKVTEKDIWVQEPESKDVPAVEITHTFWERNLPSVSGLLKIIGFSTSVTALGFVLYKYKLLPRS
In words: SAFETYscan monoamine oxidase A enzymatic inhibition. In kind it is biochemical. To be noted: 0.1 µM to 10 µM tested. As to the method: as §3

The target in a further series is T5, dopamine transport (DAT) (Homo sapiens, UniProt Q01959).
T5 construct: purchased Eurofins Discovery (San Diego, CA, USA), SAFETYscan E/IC50 SELECT service
T5 sequence (Q01959 whole entry): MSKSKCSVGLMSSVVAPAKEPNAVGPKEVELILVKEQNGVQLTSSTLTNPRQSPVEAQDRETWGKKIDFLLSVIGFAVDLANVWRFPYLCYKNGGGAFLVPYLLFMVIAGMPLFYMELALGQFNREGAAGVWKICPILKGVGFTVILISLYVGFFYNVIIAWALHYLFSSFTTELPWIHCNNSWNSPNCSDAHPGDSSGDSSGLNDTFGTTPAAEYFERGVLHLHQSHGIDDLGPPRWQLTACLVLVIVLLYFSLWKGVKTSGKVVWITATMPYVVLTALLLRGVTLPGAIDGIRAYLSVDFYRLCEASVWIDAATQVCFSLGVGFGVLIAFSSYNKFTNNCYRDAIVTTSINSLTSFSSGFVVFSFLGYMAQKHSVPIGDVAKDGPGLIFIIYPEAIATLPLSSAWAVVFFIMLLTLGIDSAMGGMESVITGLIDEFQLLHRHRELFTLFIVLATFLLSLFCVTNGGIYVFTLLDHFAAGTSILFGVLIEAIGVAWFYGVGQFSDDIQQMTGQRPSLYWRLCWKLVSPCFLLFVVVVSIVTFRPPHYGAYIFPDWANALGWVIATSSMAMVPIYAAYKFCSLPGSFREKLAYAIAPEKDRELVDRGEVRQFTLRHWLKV
The series is described as follows: SAFETYscan DAT assay. To be noted: 0.1 µM to 10 µM tested. In kind it is biochemical. The method, then:
as §3

Series [6] in a line: biotransformation in fresh pig skin. In kind it is in vitro ADME. To be noted: after 24 h, irrespective of test sample concentration (0.3% and 1.0%). The method, then:
(§4) Metabolism in skin is evident with approx. 50% of Thiamidol degraded in a pig skin assay compared to controls after 24 h, irrespective of test sample concentration. A semiquantitative analysis of the metabolites in the porcine in vitro model is shown in Figure 2, with the primary reactions due to direct glucuronic acid conjugation (phase II metabolism) at one of the free hydroxyl groups. Further degradation products could be attributed to a combination of phase I and phase II metabolism, i.e., hydroxylation and methylation.
(§5) A biotransformation study analyzed the degradation of Thiamidol in fresh pig skin at room temperature after 24 h exposure. A solution of 0.3% and 1.0% was prepared in 2-proanol. From this, about 25 µL of test solution was placed in three vials with 2.5 g of skin, as well as controls without skin or containing skin only. All samples were mixed with 0.5 mL of water, shaken and left open. Determination of the content of the test sample was carried out in parallel. After 24 h incubation, the samples were mixed with 2 mL of acetonitrile, placed in an ultrasonic bath for 10 min (resulting in a stop to any metabolic reactions) and extracted with 50% methanol, then shaken well and placed in an ultrasonic bath and filtered. Metabolites were then identified using liquid chromatography coupled with mass spectroscopy. […]

The nature of series [7]: substrate depletion in human hepatocytes. In kind it is in vitro ADME. To be noted: 5 μM, 37 °C, over 240 min. As to the method:
as §4
as §5, with “filtered.” for “filtered. Metabolites were then identified using liquid chromatography coupled with mass spectroscopy.”
The in vitro intrinsic clearances and half-life readouts were expressed as µL/min/10^6 cells and in minutes, respectively. […]

Series [8] deals with recombinant human tyrosinase (hTyr). More on the design: method as in PMID 29427586. To be noted: read-out: half-maximal inhibitory concentration (IC50) for hTyr; cited from earlier work.
The subject of another series is hyperpigmentation. To be noted: cited from earlier work.
Series [9] deals with 3T3. More on the design: method as in PMID 15598357. To be noted: same assay; read-out: IC50 for cytotoxicity in 3T3 Neutral Red Uptake (NRU); cited from earlier work.

Some results are limits rather than exact numbers.

Regarding `CC(C)C(=O)Nc1nc(-c2ccc(O)cc2O)cs1` [Thiamidol, isobutylamido thiazolyl resorcinol], the “skin corrosion and irritation category” value in [1] is reported as “not categorized as corrosive or irritating to the skin”. Moreover, the IC50 was 136000 nM in series [2]; 360 nM in series [4]; more than 1000 nM against COX1; more than 1000 nM at COX2; more than 1000 nM in series [5]; more than 1000 nM against dopamine transport (DAT). Also, the IC50 in series [8] was 1100 nM. Moreover, the “phototoxicity: distinction of NR50 in the presence of UV light” value in the series with 3T3 [3] is “no biologically significant distinction”. The “degraded in pig skin assay compared to controls” value in series [6] was “approx. 50%”. Besides, in [7], the “in vitro half-life in human hepatocytes” value is “in the minute range”. Also, in the series on hyperpigmentation (Thiamidol formulations, diverse skin- and phototypes), the “adverse effects in clinical studies” value was “no significant adverse effects”. Further, in the series with hyperpigmentation (UV-induced solar lentigines, melasma, acne- and laser-induced PIH), the “effect on hyperpigmentation in clinical studies” value is “effectively reduces hyperpigmentation”.
Take `Oc1ccccc1O` [catechol]: the IC50 with 3T3 [9] was 100 nM.
On to `Oc1ccc(O)cc1` [hydroquinone], for which the IC50 in the series with 3T3 [9] is 12900 nM.
As for `Oc1cccc(O)c1` [resorcinol, 1,3-benzenediol], the IC50 in the series with 3T3 [9] is 17300 nM.
